Test results as given in ChEMBL document CHEMBL1821723 (J Med Chem, 2011).

assay: in vitro; conditions: human, liver microsomes
Description: Metabolic stability in human liver microsome assessed as compound remaining after 30 mins

Row | SMILES | remaining at 0.5 h
1 | CC(Oc1cc(-c2cnn(C3CNC3)c2)cnc1N)c1c(Cl)ccc(F)c1Cl (racemic) | 44%
2 | CC(Oc1cc(-c2cnn(C)c2)cnc1N)c1c(Cl)ccc(F)c1Cl (racemic) | 5.2%
3 | CC(Oc1cc(-c2cnn(CC3CN(CC(N)=O)C3)c2)cnc1N)c1c(Cl)ccc(F)c1Cl (racemic) | 47.8%
4 | CC(Oc1cc(-c2cnn(C3CCCNC3)c2)cnc1N)c1c(Cl)ccc(F)c1Cl (racemic) | 44.3%
5 | CC(Oc1cc(-c2cnn(CC3(O)CCOCC3)c2)cnc1N)c1c(Cl)ccc(F)c1Cl (racemic) | 0.9%
6 | CC(Oc1cc(-c2cnn(C(C)C)c2)cnc1N)c1c(Cl)ccc(F)c1Cl (racemic) | 3.2%
7 | CC(Oc1cc(-c2cnn(CC3CNC3)c2)cnc1N)c1c(Cl)ccc(F)c1Cl (racemic) | 71%
8 | CC(Oc1cc(-c2cnn(C(C)(C)C(=O)NCCN(C)C)c2)cnc1N)c1c(Cl)ccc(F)c1Cl (racemic) | 3.6%
9 | CC(Oc1cc(-c2cnn(CC(=O)NCCCN(C)C)c2)cnc1N)c1c(Cl)ccc(F)c1Cl (racemic) | 23.8%
